Blank lines part the entries; values can stand above or below the compound they belong to.
How the values were obtained:
[1] = target: T1, Telomeric repeat-binding factor 2-interacting protein 1 (Homo sapiens, UniProt Q9NYB0); experiment: Competitive binding to RAP1 (unknown origin) incubated for 1 hr by fluorescence polarization-based binding assay
T1 sequence (Q9NYB0 whole entry): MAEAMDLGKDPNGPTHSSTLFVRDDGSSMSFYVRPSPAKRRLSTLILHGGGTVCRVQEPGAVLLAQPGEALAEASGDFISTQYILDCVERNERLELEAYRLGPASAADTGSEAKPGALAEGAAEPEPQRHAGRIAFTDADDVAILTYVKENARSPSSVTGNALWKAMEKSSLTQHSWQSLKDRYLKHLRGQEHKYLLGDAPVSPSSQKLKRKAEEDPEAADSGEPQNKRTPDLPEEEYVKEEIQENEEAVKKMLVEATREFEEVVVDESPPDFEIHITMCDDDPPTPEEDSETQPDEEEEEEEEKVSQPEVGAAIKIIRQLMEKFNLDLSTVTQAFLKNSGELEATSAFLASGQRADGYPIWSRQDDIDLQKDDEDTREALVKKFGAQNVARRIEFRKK

[2] = Solubility of compound in phosphate buffer at 15 uM; assay type: physicochemical
[3] = Solubility of compound in phosphate buffer at 100 uM; assay type: physicochemical

- IC50 [1]: > 200 µM
Compound: Ac-TTIGMKTLKAAFKT-NH2

- solubility [2]: Insoluble
Compound: C#CC[C@@H](NC(=O)[C@H](CCCCN)NC(=O)[C@H](Cc1ccccc1)NC(=O)[C@H](C)NC(=O)[C@H](CCCCN=[N+]=[N-])NC(=O)[C@H](CCCCN)NC(=O)[C@H](CC(C)C)NC(=O)[C@@H](NC(=O)[C@H](CCSC)NC(=O)[C@H](CCSC)NC(=O)CNC(=O)[C@@H](NC(=O)[C@@H](NC(=O)[C@@H](NC(C)=O)[C@@H](C)O)[C@@H](C)O)[C@@H](C)CC)[C@@H](C)O)C(=O)N[C@@H](CC(C)C)C(=O)N[C@@H](CO)C(N)=O

- solubility [3]: soluble
Compound: CC[C@@H](C)[C@H](NC(=O)[C@@H](NC(=O)[C@@H](NC(C)=O)[C@@H](C)O)[C@@H](C)O)C(=O)NCC(=O)N[C@@H](CCSC)C(=O)N[C@@H](CCSC)C(=O)N[C@H](C(=O)N[C@@H](CC(C)C)C(=O)N[C@@H](CCCCN)C(=O)N[C@@H]1CCCCn2cc(nn2)C[C@H](C(=O)N[C@@H](CC(C)C)C(=O)N[C@H](CO)C(N)=O)NC(=O)[C@@H](CCCCN)NC(=O)[C@@H](Cc2ccccc2)NC(=O)[C@H](C)NC1=O)[C@@H](C)O (stereo in doubt)
